In patent US9895363B2, “Methods for modulating function of proliferating cell nuclear antigen (PCNA) and treating cancer with PCNA-targeting compounds” (University of Cincinnati, priority 2010, dated 2018):

Columns and labels:
PC-3 cells = assay: Alamar blue assay, PC-3 cells as positive control; format: cell-based, Human; conditions: FIG. 2(B)
Procedure: The effects of PCNA-I1 on growth of tumor cells versus primary cells was also investigated. Specifically, the effects of PCNA-1I on the growth of primary cells was investigated using primary culture of mouse lymphocytes. An Alamar blue assay was performed with PC-3 cells as a positive control. Freshly prepared mouse spleen lymphocytes were stimulated for 72 H with 2 μg/mL of concanavalin A. During the last 24 H, 20 μL/well of alamar blue was added. The fluorescence intensity was measured at 530/580 (excitation/emission).

[1] = test system: UV2237 fibrosarcoma cells; assay: Growth inhibition by MTT staining, UV2237; format: cell-based; conditions: 96 h, Mouse, treated four days
Procedure: (§1) Growth inhibitory effects of PCNA-I1 and PCNA-I2 were assessed in human cancer cell lines, mouse cancer cell lines, immortalized mouse cell lines, and human primary cell lines. Specifically, growth inhibitory effects of PCNA-I1 and PCNA-I2 were assessed using MTT staining in the following cells lines: 1) human cancer cell lines including LNCaP (androgen receptor […]), 22Rv1, DU-145, LAPC-4, and PC-3 (androgen receptor […]) prostate cancer cells; MCF-7 and T47D breast cancer cells; A375 and MDA-MB435 melanoma cells; 2) mouse cancer cell lines including TRAMP-C2RE3 prostate cancer cells, B16 and K1735 melanoma cells, UV2237 fibrosarcoma cells, and CT-26 colon cancer cells; 3) immortalized mouse lung cell lines and mouse endothelial cell lines; and 4) primary human cell lines including umbilical endothelial cells (HUVEC, PromoCell, Heidelberg, Germany), primary bone marrow mesenchymal stem cells (HuMSC, PromoCell), primary human mammary epithelial cells (HuBrEC, Lonza, Walkersville, Md.), primary human prostate epithelial cells (HuPrEC, Lonza), and primary mouse spleen lymphocytes (isolated in this laboratory), and primary mouse bone marrow stromal cells (isolated in this laboratory). […]
(§2) IC50 values were derived from growth inhibition curves. […] Inhibition of cell growth was calculated using the formula: growth inhibition (%)=(1−A570 of treated/A570 of control)×100. […]

T47D breast cancer cells = assay: Growth inhibition by MTT staining, T47D; format: cell-based; conditions: 96 h, Human tumor cells, treated four days
Procedure: as §1, §2

LNCaP cells = assay: LNCaP tumor model in male nude mice; format: in vivo
Procedure: The therapeutic effects of PCNA-I1 were evaluated in LNCaP cells and 22Rv1 tumor models. LNCaP or 22Rv1 cells (1-2×10^6 cells in gelfoam) were implanted into the subcutis of male nude mice. From four to five days later, tumor-bearing mice were intraperitoneally injected with 10 mg/kg or 50 mg/kg of PCNA-I1. The therapy was continued at three times/week until termination of experiments. Control and treated tumor-bearing mice were monitored daily. Mouse body weight was recorded for toxicity evaluation twice a week and tumor size was measured using calipers twice a week. The experiments were terminated when mice in control groups were moribund. Additionally, to further evaluate potential liver and renal toxicity of PCNA-I1, the blood of tumor-bearing mice were sampled after the treatment with PCNA-I1 for 8 weeks.

With `Cc1ccsc1C(=O)N/N=C/c1ccc2ccccc2c1O` [PCNA-I1] the “Susceptibility of PC-3 cells relative to lymphocytes” value (PC-3 cells) was “approximately three times more susceptible than lymphocytes”, the IC50 (PC-3 cells; Homo sapiens, PC-3, Alamar blue assay) was 482 nM and the IC50 [1] was 250 nM. The IC50 (T47D breast cancer cells) was 150 nM, the “Tumor eradication, LNCaP model” value (LNCaP cells; 50 mg/kg i.p., three times/week) was “eradication of LNCaP tumors in some mice” and the “Tumor growth, LNCaP model” value (LNCaP cells; 10 or 50 mg/kg i.p., three times/week) was “retarded tumor growth”. The “PCNA expression in tumor (immunohistochemistry)” value (LNCaP cells; LNCaP tumor, 10 mg/kg three times/week, FIG. 22) was “reduced PCNA expression”.
